Measured values: PMC6597546, “Identification of a potent benzoxaborole drug candidate for treating cryptosporidiosis” (Nature Communications, 2019)
Values joined by “and” are separate entries in the source; they are usually repeats but may differ in a detail not shown here. Equal values may be shown once. “Also recorded” adds a separate entry of the source.

How the values were obtained:
[1] = tested on: C. parvum (Bunch Grass Farms Iowa isolate); assay: NOD scid gamma (NSG) mouse model of established C. parvum infection; assay type: in vivo, NOD scid gamma mice; details: for reduction of parasite shedding: after 4 days of treatment
Protocol: NOD scid gamma mice (NOD.Cg-Prkdcscid Il2rgtm1Wjl/SzJ)[55] (NSG) were used to model chronic Cryptosporidium infection. All NSG mouse studies were performed in compliance with animal care guidelines and with approval by the University of Vermont Institutional Animal Care and Use Committee. NSG mice with normal flora were purchased from The Jackson Laboratory (Bar Harbor, ME) and were housed for at least a week for acclimatization. […] Fecal parasite shedding was measured using a quantitative PCR (qPCR) assay, and the primers named above as Cp18s forward and Cp18s reverse.

human lymphocytes = assay: In vitro micronucleus genotoxicity assay; assay type: cell-based; details: with and without S9, 3 and 28 h, 0.25 to 260 µg per mL
MDR1 (P-gp) = assay: in vitro; details: dog
in vivo = details: male, Sprague-Dawley, rat, po
Protocol: A repeated oral dose toxicity and separate toxicokinetics (TK) study were performed in male rats by WuXi AppTec Company (Suzhou, China). […] Animals were individually housed in solid bottom plastic cages with bedding in compliance with the US Animal Welfare Act. All rat studies were performed using ∼8-week-old Sprague-Dawley male rats (Rattus novegicus)/Crl: CD[SD] […] Cage side clinical observations of condition and behavior (i.e., gait, stool, activity level, atonia, coat soiling and grooming, skin turgor, posture, priapism, piloerection) were performed twice daily during the dosing phase, and weights and food consumption were measured daily. At termination, all study animals were evaluated for erythrocyte count, absolute reticulocyte count, alkaline phosphatase, and triglycerides by fasting the animals overnight and obtaining blood from the abdominal aorta at necropsy as a terminal procedure under deep anesthesia (pentobarbital). A complete necropsy and histopathologic studies (hematoxylin and eosin staining) of large intestine, small intestine, stomach, and any gross lesions were performed on all animals on day 7 of dosing. […] Serum was collected from vehicle-control animals at 1 h and 4 h after dosing on days 1 and 7. […] Following completion of blood collection, TK animals were euthanized by CO2 inhalation and exsanguination without necropsy.

Single-dose oral calf PK = assay type: in vivo, Holstein bull calves; details: calves, oral 5 mg per kg
Protocol: Single-dose oral and intravenous murine PK studies were performed by WuXi Biologics (Wuxi, China) in female CD-1 mice in compliance with animal care guidelines. […] Single-dose oral calf PK studies were performed at the University of Vermont in compliance with animal care guidelines and with approval from the University of Vermont Institutional Animal Care and Use Committee. […] Doses were squirted into the calves’ mouths during interruptions in bottle feeding. Fecal samples were collected at the indicated times by manual anal stimulation. […] Fecal AN7973 was measured by extracting AN7973 from homogenized feces with acetonitrile. For this, feces were added to 4 volumes of acetonitrile (4 mL per g), mixed by vortexing for 5 min at room temperature, and then centrifuged. […] The fecal extraction method was validated with a standard curve of compound added to control feces. […] Non-compartmental analysis of the mean concentration-time profiles was performed using Phoenix version 6.4 (Pharsight Corporation, Mountain View, CA, USA). Concentrations below the limit of quantitation were assigned values of zero for generation of mean concentrations. Predictions of multidose exposures were generated by non-parametric superposition of the single-dose PK data using Phoenix version 6.4 (Supplementary Fig. 5).

[2] = tested on: C. parvum (Bunch Grass Farms Iowa isolate); assay: Time-kill curve assay in HCT-8 cells; assay type: cell-based, Cryptosporidium parvum
Protocol: The invasion assay, DNA replication assay, asexual to sexual stage conversion, and time-kill curve assays were performed using fluorescence microscopy to enumerate parasites and host cell nuclei. Staining protocols are individually described for each assay. Unless noted otherwise, the details of image acquisition were as follows. An inverted Nikon Eclipse Ti2000 microscope with an automated stage and Perfect Focus was used with NIS-Elements Advanced Research software (Nikon, USA, version 4.30.01) to image the wells. The microscope was programmed to focus on the center of each well and then take a 3 × 3 composite image per well using a 20 × (0.45 NA) objective. Images were exported as .tiff files and parasites and host nuclei counted using a custom macro on ImageJ (National Institutes of Health, version 1.52a). Data were analyzed using Microsoft Excel and GraphPad Prism (version 6.01). […] C. parvum Iowa isolate oocysts (Bunch Grass Farms, Deary, ID) were treated to induce excystation and added to >90% confluent HCT-8 cells in 384-well plates. […] The monolayers were then washed, fixed, and stained with Vicia villosa lectin and DAPI at the indicated time points, and imaged as for the C. parvum growth assay. Separate 384-well plates were used for each time point. Parasite numbers were normalized to host cell nucleus numbers and expressed as the percentage of host cells infected. Drug-induced parasite decay was isolated from the reduction in parasites over time that occurs spontaneously in the HCT-8 culture system by expressing the number of parasites as the percentage of the number of parasites present at each time point under control (DMSO-treated) conditions.

CYP3A4 = CYP3A4 (Homo sapiens, UniProt P08684); assay: CYP450 inhibition 3A4; assay type: in vitro ADME
Cytotoxicity THP-1 (3d) = assay type: cell-based; details: human, THP-1 cells, 25 µM highest concentration tested
[3] = tested on: 109 off-target enzymes and receptors; assay: Lead Profiling and Adverse Reaction Enzyme off-target panel; assay type: binding; details: 10 µM
Protocol: In vitro safety profiling studies were conducted by Ricerca Biosciences (Taipei, Taiwan) and WuXi AppTec (Suzhou, China). Ricerca performed a Lead Profiling and Adverse Reaction Enzyme panel of 109 off-target enzymes and receptors. This included the hERG K+ ion channel, which is associated with cardiac tachyarrhythmias, and used a radioligand binding competition format with 10 µM test compound for 1 h at 25 °C. For the enzyme and receptor panel, competitive inhibition at 10 µM of test compound was the most common assay format. The AMES bacterial reverse mutation assay detects point mutations in Escherichia coli and Salmonella typhimurium as an indicator of mutagenic activity. Bacterial strains were obtained from Molecular Toxicology (Boone, NC).

Cytotoxicity Jurkat (3d) = assay type: cell-based; details: human, Jurkat cells, 25 µM highest concentration tested
[4] = Cytotoxicity murine L929 (3d); assay type: cell-based; details: mouse, L929 cells, 25 µM highest concentration tested
[5] = male, Holstein, bovine, plasma, 5 mg/kg

Chain of CYP3A4 (P08684 whole entry): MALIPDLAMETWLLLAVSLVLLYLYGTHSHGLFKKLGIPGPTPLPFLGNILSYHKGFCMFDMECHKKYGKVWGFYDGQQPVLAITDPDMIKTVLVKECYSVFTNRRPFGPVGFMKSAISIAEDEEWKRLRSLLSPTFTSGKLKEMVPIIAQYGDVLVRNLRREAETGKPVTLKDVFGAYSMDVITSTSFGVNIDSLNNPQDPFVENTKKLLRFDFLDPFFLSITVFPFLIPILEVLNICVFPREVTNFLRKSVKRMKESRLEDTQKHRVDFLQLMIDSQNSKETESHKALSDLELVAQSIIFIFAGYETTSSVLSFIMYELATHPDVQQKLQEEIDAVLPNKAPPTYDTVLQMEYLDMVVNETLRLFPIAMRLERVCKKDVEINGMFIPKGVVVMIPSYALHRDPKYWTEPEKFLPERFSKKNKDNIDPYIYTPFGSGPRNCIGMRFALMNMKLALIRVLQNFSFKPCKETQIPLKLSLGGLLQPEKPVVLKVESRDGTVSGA

CC1(C)OB(O)c2cc(NC(=O)c3ccc(-n4cccn4)cc3Cl)ccc21 [AN7973]
reduction of parasite shedding ([1]; 10 mg per kg once daily oral gavage): > 90% | parasite fecal shedding (qPCR), individual mice ([1]; 10 mg/kg, D7 (before treatment)): 58.681 oocysts/mg feces and 43.169 oocysts/mg feces and 158.993 oocysts/mg feces and 120.558 oocysts/mg feces | parasite fecal shedding (qPCR), individual mice ([1]; 10 mg/kg, D11): 7.142 oocysts/mg feces and 1.830 oocysts/mg feces and 16.882 oocysts/mg feces and 7.589 oocysts/mg feces | reduction of parasite shedding ([1]; 25 mg per kg once daily oral gavage): > 99% | parasite fecal shedding (qPCR), individual mice ([1]; 25 mg/kg, D7 (before treatment)): 379.464 oocysts/mg feces and 632.650 oocysts/mg feces and 267.595 oocysts/mg feces and 299.397 oocysts/mg feces | parasite fecal shedding (qPCR), individual mice ([1]; 25 mg/kg, D11, ND = not detected, lower limit of detection 0.1): 0.825 oocysts/mg feces | adverse effects in NSG mice ([1]; treated NSG mice gained weight normally): no adverse effects were observed | In vitro micronucleus (human lymphocytes): negative | Papp (MDR1 (P-gp); MDCK-MDR1, MDCK-MDR1 Papp): 56.5 ×10⁻⁶ cm/s | Papp (MDR1 (P-gp); MDCK-MDR1, MDCK-MDR1 Papp + Pgp inhibitor): 60.6 ×10⁻⁶ cm/s | NOAEL at 7 days (in vivo): > 80 mg/kg/day | t1/2 (Single-dose oral calf PK): 31.1 h | AUC(0-inf) (Single-dose oral calf PK; [5]): 190 µg·h/mL | Cmax (Single-dose oral calf PK; [5]): 3570 ng/mL | half-life (Single-dose oral calf PK; male, Holstein, bovine, plasma, po, 5 mg/kg): 31 h | concentration giving maximum rate of parasite elimination ([2]; Cryptosporidium parvum, HCT-8, read-out: concentration at which maximum rate of parasite elimination was achieved (∼3 × EC90)): ~630 nM | time-kill curve result ([2]; compound added ~24 h after infection of HCT-8): appeared to act rapidly and drove progressive elimination of C. parvum | % Parasite / host nuclei ([2]; compound at 3 x EC90, 0 h exposure): 25.13% and 23.57% and 25.93% and 26.94% | % Parasite / host nuclei ([2]; compound at 3 x EC90, 6 h exposure): 24.78% and 34.35% and 30.89% | % Parasite / host nuclei ([2]; compound at 3 x EC90, 24 h exposure): 15.27% and 14.74% and 17.96% and 15.11% | % Parasite / host nuclei ([2]; compound at 3 x EC90, 48 h exposure): 20.76% and 12.39% and 18.77% and 13.91% | % Parasite / host nuclei ([2]; compound at 3 x EC90, 72 h exposure): 10.40% and 6.55% and 11.33% and 7.26% | % Parasite / host nuclei ([2]; compound at 6 x EC90, 0 h exposure): 26.94% and 25.13% and 23.57% and 25.93% | % Parasite / host nuclei ([2]; compound at 6 x EC90, 6 h exposure): 28.91% and 27.91% and 32.17% and 31.13% | % Parasite / host nuclei ([2]; compound at 6 x EC90, 24 h exposure): 21.47% and 14.00% and 13.65% and 12.46% | % Parasite / host nuclei ([2]; compound at 6 x EC90, 48 h exposure): 10.56% and 11.11% and 14.16% and 9.59% | % Parasite / host nuclei ([2]; compound at 6 x EC90, 72 h exposure): 5.25% and 6.00% and 13.91% and 10.57% | % Parasite / host nuclei ([2]; compound at 9 x EC90, 0 h exposure): 26.94% and 25.13% and 23.57% and 25.93% | % Parasite / host nuclei ([2]; compound at 9 x EC90, 24 h exposure): 14.18% and 12.40% and 14.28% and 11.31% | % Parasite / host nuclei ([2]; compound at 9 x EC90, 48 h exposure): 12.96% and 14.27% and 16.75% and 18.20% | % Parasite / host nuclei ([2]; compound at 12 x EC90, 0 h exposure): 26.94% and 25.13% and 23.57% and 25.93% | % Parasite / host nuclei ([2]; compound at 12 x EC90, 24 h exposure): 11.36% and 18.45% and 14.90% and 9.34% | % Parasite / host nuclei ([2]; compound at 12 x EC90, 48 h exposure): 10.50% and 12.64% and 5.47% and 10.46% | % Parasite / host nuclei ([2]; compound at 12 x EC90, 72 h exposure): 8.81% and 7.07% and 9.43% and 15.51% | % Parasite / host nuclei ([2]; compound at EC50, 0 h exposure): 26.94% and 25.13% and 23.57% and 25.93% | % Parasite / host nuclei ([2]; compound at EC50, 6 h exposure): 20.18% | % Parasite / host nuclei ([2]; compound at EC50, 24 h exposure): 55.77% and 58.71% and 35.00% and 58.88% | % Parasite / host nuclei ([2]; compound at EC50, 48 h exposure): 63.82% and 58.60% and 55.54% and 55.88% | % Parasite / host nuclei ([2]; compound at EC50, 72 h exposure): 29.51% and 58.62% and 41.28% and 34.71% | % Parasite / host nuclei ([2]; compound at EC90, 0 h exposure): 26.94% and 25.13% and 23.57% and 25.93% | % Parasite / host nuclei ([2]; compound at EC90, 24 h exposure): 31.22% and 39.05% and 28.47% and 33.72% | % Parasite / host nuclei ([2]; compound at EC90, 48 h exposure): 43.81% and 37.66% and 41.76% and 32.99% | % Parasite / host nuclei ([2]; compound at EC90, 72 h exposure): 28.05% and 29.96% and 37.03% and 23.24% | time required for 99.9% parasite reduction ([2]; in vitro): ~92 h | in vitro parasite elimination half-life ([2]; one-phase exponential decay, 12 × EC90, referenced to DMSO control): ~9.2 h | inhibition at 10 µM (CYP3A4): 1% | IC50 at 3 d (Cytotoxicity THP-1 (3d)): > 25 µM | In vitro Receptor Panel (109 targets) [3]: Negative; also recorded: no significant findings | IC50 at 3 d (Cytotoxicity Jurkat (3d)): > 25 µM | IC50 at 3 d [4]: > 25 µM
